Literature values, collected in paper PMC5686165, “Plant-to-plant communication triggered by systemin primes anti-herbivore resistance in tomato” (Scientific Reports, 2017).

System: A. ervi
Conditions: tomato and A. ervi
Experimental: The possible biological relevance of the systemin-triggered priming was evaluated using three different types of source plants. […] The qualitative and quantitative differences in VOCs emissions were confirmed by PLSDA analysis and explain the effect on parasitoid attraction. Compared to R-S4, all receiver plants, after 24 hours of exposition to the t ...

C=C(C)CC(C)CCC (stereo not shown) [2,4-dimethyl-1-heptene]
elicitation of indirect defense in inter-specific plant-to-plant communication: powerful elicitor of indirect defense
